# In patent US8449864B2 (The Board of Trustees of the Leland Stanford Junior …, priority 2006, dated 2013):
# Peptide text beside a SMILES is read from it.
# How the values were obtained:
# PLCs containing PMCs = assay: NT degradation by peritoneal lavage cells (PLCs) containing peritoneal mast cells; assay type: cell-based, mouse; conditions: Kit+/+ PLCs pre-treated 15 min at 37° C. (chym 100 μM, CFp 10 μM, PCI 10 μg/ml, p03 100 nM); NT 10 μM, 30 min
# Protocol: FIG. 5. Neurolysin and carboxypeptidase inhibitors prevent NT degradation by peritoneal mast cells. Kit^+/+ PLCs containing 5×10^4 PMCs were pre-treated for 15 min at 37° C. with one of the following protease inhibitors: chymostatin (chym, chymase inhibitor at 100 μM), CFp-Ala-Ala-Phe-pAB (CFp, […] at 10 μM only for PLCs), potato carboxypeptidase inhibitor (PCI, carboxypeptidase inhibitor at 10 μg/ml) and phosphodiepryl 03 (p03, neurolysin inhibitor at 100 nM for PLCs. Cells were then incubated with NT (10 μM) for 30 min at 37° C. Results are the percentage of NT remaining after incubation with cells compared to the starting concentration of NT (n=4-9 per group).
# FIG. 12. (a), PLCs containing 1×10^4 PMCs obtained from either wild type C57BL/6 mice, Ntsr1-deficient (Ntsr1^−/−) mice or Ntsr2-deficient (Ntsr2^−/−) mice were incubated for 2 h with ^3H-5-hydroxytryptamine (3H-serotonin) at 37° C. and stimulated for 15 min at 37° C. with either ET-1 (4 μM) or NT (10 μM). (b), PLCs containing 1×10^4 PMCs obtained from C57BL/6 mice were incubated for 2 h with ^3H-serotonin and stimulated for 15 min with either ET-1 (4 μM) or NT (10 μM). In a separate set of experiments, cells were pre-incubated with BAPTA-AM (Sigma) ([…], 15 min at […]) before the addition of the stimuli. Results are mean ±SEM of 3 experiments. (c), mMC-CPA activity was measured in supernatants obtained from Kit^+/+ PLCs containing 5×10^4 PMCs that were stimulated for 30 min at 37° C. with either ET-1 (4 μM) or NT (10 μM). (d), PLCs containing 5×10^4 PMCs from C57BL/6J mice were pre-treated for 15 min at 37° C. with BAPTA-AM ([…], a Ca^2+ chelator that can reduce MC degranulation) and then incubated with NT (10 μM) for 30 min at 37° C. Results are expressed as the percentage of NT remaining after incubation with cells compared to that in samples of NT incubated in vehicle alone at 37° C. (data were pooled from triplicate determinations in two independent experiments that gave similar results). (e), Expression of mRNA for NT-receptors in the AtT20 neuroendocrine cell line, the mast cell line C1.MC/C57.1, C57BL/6J BMCMCs, Kit^+/+ BMCMCs and peritoneal mast cells purified from Kit^+/+ mice (PMCs).
# NT, ET-1, C-reactive protein, and TNF measurements. Concentrations of NT, C-reactive protein, ET-1 and TNF were measured by ELISA (Bachem Peninsula Labs for NT; Biomedica, Vienna for C-reactive protein and ET-1; BD Biosciences for TNF). […] The detection limits for the ELISA kits were: 24 fmol/ml (NT), 0.048 fmol/ml (ET-1), 0.124 ng/ml (C-reactive protein) and […] (human TNF).
# neurolysin (NLN) = biological target: T1, neurolysin (NLN) (Mus musculus, UniProt Q91YP2); assay: NT degradation by membrane and cytosol preparations of BMCMCs; assay type: biochemical; conditions: Pro-Ile 10 mM; NT 10 μM
# T1 construct: membrane and cytosol preparations obtained from Kit^+/+ BMCMCs (2×10^6 cells/preparation); endogenous in cells; host or cells: Kit+/+ mouse bone marrow-derived cultured mast cells (BMCMCs), membrane and cytosol fractions
# T1 sequence (Q91YP2 38-704): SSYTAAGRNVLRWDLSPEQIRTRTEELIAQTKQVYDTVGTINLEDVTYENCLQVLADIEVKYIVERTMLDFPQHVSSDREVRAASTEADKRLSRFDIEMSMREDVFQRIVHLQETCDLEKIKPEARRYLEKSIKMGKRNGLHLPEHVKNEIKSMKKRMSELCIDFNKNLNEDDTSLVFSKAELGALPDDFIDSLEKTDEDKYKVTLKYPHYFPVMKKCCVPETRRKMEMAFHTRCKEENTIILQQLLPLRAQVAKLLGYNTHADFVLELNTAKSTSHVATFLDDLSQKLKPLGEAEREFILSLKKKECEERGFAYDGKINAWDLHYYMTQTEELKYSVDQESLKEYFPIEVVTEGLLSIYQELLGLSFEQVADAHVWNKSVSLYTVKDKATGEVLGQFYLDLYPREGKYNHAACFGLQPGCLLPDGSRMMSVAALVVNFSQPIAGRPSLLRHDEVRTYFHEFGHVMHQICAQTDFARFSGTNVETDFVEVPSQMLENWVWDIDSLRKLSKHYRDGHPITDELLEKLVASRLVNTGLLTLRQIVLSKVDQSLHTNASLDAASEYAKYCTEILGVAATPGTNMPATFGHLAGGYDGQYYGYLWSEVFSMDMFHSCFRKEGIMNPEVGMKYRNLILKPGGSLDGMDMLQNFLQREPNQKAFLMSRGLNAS
# Protocol: FIG. 8. MC-associated neurolysin (NLN) contributes to the MCs' ability to reduce NT-induced hypotension. (a) Identification of NLN in the membrane and cytosol fractions of C1.MC/C57.1 MCs and C57BL/6J BMCMCs. […] Results are expressed as the percentage of NT remaining after incubation with membrane or cytosol preparations compared to that in samples of NT incubated in vehicle alone (n=3). (c, d) Degradation of NT (10 μM) by A23187 (5 μM)-activated Kit^+/+ BMCMCs (2×10^5) that were pre-treated with either empty vector, Neurolysin-short hairpin RNA (NLN-shRNA) or mouse MC carpoxypeptidase A-short hairpin RNA (mMC-CPA-shRNA). Cells were incubated with NT for 30 min at 37° C. Results are expressed as the percentage of NT remaining in the samples compared to that in samples of NT incubated in vehicle alone at 37° C. (n=3). (e) Changes in MAP versus baseline levels (=“0”, measured 3 min after injection of 300 μl saline, i.p.) at various times after injection of NT (6 nmol in 300 μl saline, i.p.) in Kit^W/W-v mice which had been engrafted i.p. with Kit^+/+ BMCMCs treated with either empty vector (empty vector MCs→Kit^W/W-v), NLN-shRNA (NLN-shRNA MCs→Kit^W/W-v) or mMC-CPA-shRNA (mMC-CPA-shRNA MCs→Kit^W/W-v). (f) MCs in the peritoneal cavity (arrows, MCs; scale bars, 100 μm; May Grunwald-modified Giemsa stain) and mesentery (arrows, MCs; scale bars, 100 μm; Czaba stain). […]
# NTR1 = conditions: different tissues and cells from various species; cited from earlier work
# PMCs = assay: Internalization of rhodamine-labelled peptide by PMCs (flow cytometry, confocal microscopy); assay type: cell-based, mouse
# Protocol: FIG. 11. […] P<0.0001 versus corresponding NT- or ET-1-injected groups. […] (b) Flow cytometry analysis and confocal microscopy of C57BL/6 PMCs incubated with NT-rhodamine (50 μM) (red) at 4° C. (0 min) or placed at 37° C. for 5 or 15 min. PMCs were identified among other PLCs by flow cytometry by staining of IgE bound to the MCs (green). […] (c) PLCs containing 5×10^4 PMCs from either C57BL/6, Ntsr1^−/− or Ntsr2^−/− mice were incubated with NT (10 μM) for 30 min at 37° C. Results are expressed as the percentage of NT remaining after incubation with cells compared to that in samples of NT incubated in vehicle alone at 37° C. (data were pooled from triplicate determinations in two independent experiments that gave similar results). (d,e) Changes in MAP vs. baseline levels (=“0”, measured 3 min after injection of 300 μl saline, i.p.) at various times after injection of NT (6 nmol in 300 μl saline, i.p.) (d), and NT levels in the peritoneal fluids of these mice at 30 min after injection (e), in Kit^W/W-v mice that had been engrafted i.p. with BMCMCs of C57BL/6-Ntsr1^+/+ or -Ntsr1^−/− origin. (f) Survival after CLP (50% ligation; single puncture with 22 G needle) in Kit^W/W-v mice that had been engrafted i.p. with BMCMCs of C57BL/6-Ntsr1^+/+ or -Ntsr1^−/− origin.
# FIGS. 19a-19f. (a-c) Flow cytometry analysis and (d, e) confocal microscopy of Ntsr+/+ (a, c) or Ntsr1−/−2−/− (b) PMCs pre-loaded with either NT-rhodamine (a, b) or scrambled peptide-rhodamine (c) ([…]) (red) that were placed at 37° C. for the indicated times. Control cells pre-loaded with either NT-rhodamine or scrambled peptide-rhodamine were maintained at 4° C. (“0 min”). PMCs were identified among other peritoneal lavage cells (PLCs) in confocal microscopy by green staining of IgE bound to the PMC surface and in flow cytometry by staining of c-Kit receptors. (f) Fold increase in mean fluorescence intensity by flow cytometry in PMCs versus other (non mast cell) PLCs obtained from Ntsr+/+ mice incubated for 15 min at 37° C. with NT-rhodamine when compared to control cells that were maintained at 4° C. for 15 min. Data are representative of (a-e) or pooled from (f) the three experiments performed, each of which gave similar results.
# Flow cytomety and confocal microscopy. Cells were incubated for 16 h in DMEM+10% FCS+2 μg/ml IgE (hybridoma H1-DNP-ε26). Cells were washed and resuspended in DMEM+10% fetal calf serum (FCS)+NT-rhodamine (AnaSpec) (50 μM) and placed at 4° C. for 1 h. Some cells then were placed at 37° C. for 5 or 15 min. IgE Abs bound to PMCs were stained with FITC-conjugated anti-mouse IgE Abs (BD Biosciences). Levels of surface IgE were analyzed by flow cytometry, as described above.
compound,measurement,setting,value
CC(NC(=O)C(C)NC(CCc1ccccc1)C(=O)O)C(=O)NC(Cc1ccccc1)C(=O)Nc1ccc(C(=O)O)cc1 (stereo not drawn) [CFp-Ala-Ala-Phe-pAB],NT degradation by PLCs in presence of protease inhibitor,PLCs containing PMCs,did not prevent NT degradation
CC[C@H](C)[C@H](NC(=O)[C@@H]1CCCN1)C(=O)O [Pro-Ile] (H-Pro-Ile-OH),NT degradation by membrane or cytosol preparations of BMCMCs,neurolysin (NLN),almost completely inhibited
COc1cccc(OC)c1-c1cc(C(=O)NC2(C(=O)O)C3CC4CC(C3)CC2C4)nn1-c1ccnc2cc(Cl)ccc12 (stereo not drawn) [SR48692],affinity for NTR1,NTR1,nanomolar affinity
CC(C)C[C@H](NC(=O)[C@@H](NC(=O)N[C@@H](Cc1ccccc1)C(=O)O)[C@@H]1CCN=C(N)N1)C(=O)N[C@H](C=O)Cc1ccccc1 [chymostatin],NT degradation by PLCs in presence of protease inhibitor,PLCs containing PMCs,did not prevent NT degradation
NT-rhodamine: rhodamine-labelled NT,binding and internalization by PMCs,"PMCs; C57BL/6 PMCs, 50 μM, 37° C. for 5 or 15 min",bound and internalized
same,internalization by PMCs lacking Ntsr1 and Ntsr2,"PMCs; Ntsr1−/−2−/− PMCs, 10 µM, 37° C.",peptide internalization did not occur
same,uptake by PMCs compared with non mast cells of the peritoneal cavity,"PMCs; Ntsr+/+ PLCs, 15 min at 37° C.",more efficient
same,internalization by PMCs,"PMCs; Ntsr+/+ PMCs, 10 µM, 37° C.",able to internalize
"PCI: potato carboxypeptidase inhibitor; mouse MC carboxypeptidase A (mMC-CPA) inhibitor (QQHADPICNKPCKTHDDCSGAWFCQACWNSARTCGPYVG; UniProt P01075 1-39, looked up)",NT degradation by PLCs in presence of protease inhibitor,PLCs containing PMCs,significantly inhibited
